Test [1] deals with HyNaC2/3/7 (Hydra vulgaris (Hydra magnipapillata), UniProt A0A0A0MP73+A8DZR6+A8DZR7). The experiment in a line: Inhibition of HyNaC2/3/7 currents in Xenopus oocytes (TEVC). The class given is cell-based. The conditions noted are these: read-out: IAmil/I, relative current remaining after block by 100 μM amiloride. On the procedure:
(§1) One of the hallmarks of DEG/ENaCs is the block by the diuretic amiloride.
(§2) Figure 10 Diminazene is a potent inhibitor of HyNaCs. A) Current trace illustrating the concentration-dependent inhibition of HyNaC2/9/7 by diminazene. Block by 100 μM amiloride was used to compare the affinity for diminazene and amiloride. […] Dashed lines represent the zero current level. B) Concentration-response curves showing the concentration-dependent inhibition of HyNaCs by diminazene. HyNaCs, Hydra Na^+ channels.
(§3) To study the biophysical properties of the new HyNaCs, cRNA of HyNaCs was synthesized in vitro (mMessage mMachine kit, Ambion, Austin, Texas, USA) and injected into Xenopus laevis oocytes of stage V and VI. […] Whole cell currents were recorded from defolliculated oocytes by two-electrode voltage-clamp (TEVC) using the amplifier TurboTec 03X (npi electronic GmbH, Tamm, Germany). […]
(§4) EC50 values for Hydra-RFamides I and II as well as IC50 values for diminazene were determined by fits to the Hill equation using IGOR Pro (version 6.06, WaveMetrics, Inc.). Reversal potentials were defined as the first recorded data point, where currents reversed signs from negative to positive. […]

For test [2], the system named is Hydra magnipapillata. Also noted: method as in PMID 20159980. The conditions noted are these: 100 μM amiloride; ref [4]; cited from earlier work.
Test [3] concerns the target HyNaC2/9/7 (Hydra vulgaris (Hydra magnipapillata), UniProt A0A0A0MP48+A0A0A0MP73+A8DZR6). In words: Inhibition of HyNaC2/9/7 currents in Xenopus oocytes (TEVC). The class given is cell-based. The note with it: read-out: IAmil/I, relative current remaining after block by 100 μM amiloride. On the procedure: as §1, §2, §3, §4
The target of test [4] is HyNaC2/3/6 (Hydra vulgaris (Hydra magnipapillata), UniProt A0A0A0MP54+A8DZR6+A8DZR7). The experiment in a line: Inhibition of HyNaC2/3/6 currents in Xenopus oocytes (TEVC). The class given is cell-based. The conditions noted are these: read-out: IAmil/I, relative current remaining after block by 100 μM amiloride. On the procedure: as §1, §2, §3, §4
Test [5] addresses HyNaC2/4/6 (Hydra vulgaris (Hydra magnipapillata), UniProt A0A0A0MP54+A8DZR6+A8DZR8). In words: Inhibition of HyNaC2/4/6 currents in Xenopus oocytes (TEVC). The class given is cell-based. The conditions noted are these: read-out: IAmil/I, relative current remaining after block by 100 μM amiloride. On the procedure: as §1, §2, §3, §4
Test [6] has as its target T1, HyNaC2/3/5 (Hydra vulgaris (Hydra magnipapillata), UniProt A8DZR6+A8DZR7+D3UD58). The experiment in a line: Inhibition of HyNaC2/3/5 currents in Xenopus oocytes (TEVC). The class given is cell-based. The note with it: read-out: IAmil/I, relative current remaining after block by 100 μM amiloride. On the procedure:
as §1, §2, §3, §4

The target in test [7] is T1, HyNaC2/3/5. Also noted: method as in PMID 20159980. The note with it: ref [4], read-out: IC50 (apparent amiloride affinity); cited from earlier work.
The target of test [8] is HyNaC2/11/5 (Hydra vulgaris (Hydra magnipapillata), UniProt A0A0A0MP55+A8DZR6+D3UD58). In words: Inhibition of HyNaC2/11/5 currents in Xenopus oocytes (TEVC). It counts as cell-based. The conditions noted are these: read-out: IAmil/I, relative current remaining after block by 100 μM amiloride. On the procedure:
as §1, §2, §3, §4

Test [9] concerns the target HyNaC2/10/7 (Hydra vulgaris (Hydra magnipapillata), UniProt A0A0A0MP61+A0A0A0MP73+A8DZR6). In words: Inhibition of HyNaC2/10/7 currents in Xenopus oocytes (TEVC). The note with it: read-out: IAmil/I, relative current remaining after block by 100 μM amiloride. The class given is cell-based. On the procedure: as §1, §2, §3, §4

SMILES strings stand for the structures.

T1 sequence (A8DZR6 entry or part of it): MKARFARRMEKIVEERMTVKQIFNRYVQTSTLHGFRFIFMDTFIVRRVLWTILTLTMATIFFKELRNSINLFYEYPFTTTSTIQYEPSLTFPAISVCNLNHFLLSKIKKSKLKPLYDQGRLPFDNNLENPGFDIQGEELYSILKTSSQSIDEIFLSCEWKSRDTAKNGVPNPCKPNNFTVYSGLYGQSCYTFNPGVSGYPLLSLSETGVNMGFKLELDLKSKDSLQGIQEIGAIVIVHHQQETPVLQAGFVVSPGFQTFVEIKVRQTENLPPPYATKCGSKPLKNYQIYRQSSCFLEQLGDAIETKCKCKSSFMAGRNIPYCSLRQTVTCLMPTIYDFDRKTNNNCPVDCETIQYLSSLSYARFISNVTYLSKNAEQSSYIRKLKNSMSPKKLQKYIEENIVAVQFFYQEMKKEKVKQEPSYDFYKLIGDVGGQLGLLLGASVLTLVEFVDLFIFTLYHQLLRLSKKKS
T1 sequence (D3UD58 entry or part of it): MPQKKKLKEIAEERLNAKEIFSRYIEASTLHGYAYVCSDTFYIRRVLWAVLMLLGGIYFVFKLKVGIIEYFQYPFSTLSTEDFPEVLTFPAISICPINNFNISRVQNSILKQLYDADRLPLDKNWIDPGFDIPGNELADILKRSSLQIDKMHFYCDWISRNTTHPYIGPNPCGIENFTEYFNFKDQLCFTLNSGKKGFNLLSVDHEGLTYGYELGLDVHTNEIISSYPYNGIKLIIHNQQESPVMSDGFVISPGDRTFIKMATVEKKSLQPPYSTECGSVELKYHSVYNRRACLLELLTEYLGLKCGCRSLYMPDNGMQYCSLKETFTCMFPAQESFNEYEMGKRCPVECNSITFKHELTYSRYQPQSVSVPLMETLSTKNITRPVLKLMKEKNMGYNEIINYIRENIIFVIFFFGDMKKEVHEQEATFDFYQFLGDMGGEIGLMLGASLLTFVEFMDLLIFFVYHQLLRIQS
T1 sequence (A8DZR7 entry or part of it): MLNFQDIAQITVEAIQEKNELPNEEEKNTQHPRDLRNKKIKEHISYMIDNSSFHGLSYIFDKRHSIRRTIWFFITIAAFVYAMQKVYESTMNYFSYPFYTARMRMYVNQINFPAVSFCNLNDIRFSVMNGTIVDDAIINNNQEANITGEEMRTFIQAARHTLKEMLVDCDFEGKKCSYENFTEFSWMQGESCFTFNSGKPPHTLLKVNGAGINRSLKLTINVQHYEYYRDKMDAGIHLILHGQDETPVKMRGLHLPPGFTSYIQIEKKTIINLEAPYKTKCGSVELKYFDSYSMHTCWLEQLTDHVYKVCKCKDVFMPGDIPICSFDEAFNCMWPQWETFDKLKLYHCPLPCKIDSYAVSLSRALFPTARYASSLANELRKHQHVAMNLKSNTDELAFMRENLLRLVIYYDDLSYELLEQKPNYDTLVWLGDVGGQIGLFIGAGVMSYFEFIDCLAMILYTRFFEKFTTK
HyNaC2/11/5, sequence (A0A0A0MP55 entry or part of it): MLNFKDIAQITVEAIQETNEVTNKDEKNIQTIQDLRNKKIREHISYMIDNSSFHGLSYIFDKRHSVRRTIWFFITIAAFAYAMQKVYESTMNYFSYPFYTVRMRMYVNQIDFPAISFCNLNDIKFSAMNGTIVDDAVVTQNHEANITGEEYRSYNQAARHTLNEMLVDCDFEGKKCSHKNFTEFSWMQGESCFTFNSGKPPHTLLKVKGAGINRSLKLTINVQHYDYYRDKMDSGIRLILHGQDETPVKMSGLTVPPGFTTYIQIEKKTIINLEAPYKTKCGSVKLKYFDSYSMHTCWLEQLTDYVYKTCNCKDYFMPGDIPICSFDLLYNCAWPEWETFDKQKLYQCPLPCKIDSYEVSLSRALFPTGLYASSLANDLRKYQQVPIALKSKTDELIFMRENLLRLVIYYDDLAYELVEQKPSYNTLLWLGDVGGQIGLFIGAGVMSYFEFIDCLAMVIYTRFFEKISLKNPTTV
HyNaC2/11/5, sequence (A8DZR6 entry or part of it): as the sequence (A8DZR6 entry or part of it) above
HyNaC2/11/5, sequence (D3UD58 entry or part of it): as the sequence (D3UD58 entry or part of it) above
HyNaC2/3/6, sequence (A0A0A0MP54 entry or part of it): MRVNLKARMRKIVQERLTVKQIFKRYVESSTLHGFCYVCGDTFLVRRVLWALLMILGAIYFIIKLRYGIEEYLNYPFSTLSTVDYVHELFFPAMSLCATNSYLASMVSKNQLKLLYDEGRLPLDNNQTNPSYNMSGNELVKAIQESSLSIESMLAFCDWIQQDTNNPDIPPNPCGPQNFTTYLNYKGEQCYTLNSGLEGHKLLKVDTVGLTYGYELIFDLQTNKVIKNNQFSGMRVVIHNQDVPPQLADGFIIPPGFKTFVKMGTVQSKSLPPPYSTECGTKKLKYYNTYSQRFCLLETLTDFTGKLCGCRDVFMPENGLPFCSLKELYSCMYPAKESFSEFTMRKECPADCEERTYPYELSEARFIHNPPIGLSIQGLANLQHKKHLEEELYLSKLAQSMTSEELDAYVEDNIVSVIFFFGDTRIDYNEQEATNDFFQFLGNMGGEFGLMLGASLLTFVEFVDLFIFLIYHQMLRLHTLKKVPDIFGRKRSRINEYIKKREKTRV
HyNaC2/3/6, sequence (A8DZR7 entry or part of it): as the sequence (A8DZR7 entry or part of it) above
HyNaC2/3/6, sequence (A8DZR6 entry or part of it): as the sequence (A8DZR6 entry or part of it) above

For `N=C(N)NC(=O)c1nc(Cl)c(N)nc1N` [amiloride], the remaining activity at 100 µM worked out at 30 ± 10% in test [1]; 30 ± 10% in [3]; 30 ± 10% in [4]; 30 ± 10% in test [5]; 50 ± 10% in test [6]; 70 ± 10% in [8]. The remaining activity at 100 µM in test [9] is 80 ± 10%. Further, the “feeding reaction of living Hydra” value in test [2] is reported as “delays the feeding reaction”. The IC50 (in general, the concentration needed to halve the response being measured) in test [7] was approximately 120 µM.

(Values after publication PMC4212090, “The comprehensive analysis of DEG/ENaC subunits in Hydra reveals a large variety of peptide-gated channels, potentially involved in neuromuscular transmission” (BMC Biology, 2014).)
